The term IC50 denotes the point on the concentration scale where inhibition reaches its midpoint.

Molecules are shown by their SMILES. Where a SMILES comes first, the peptide text is derived from it. [ ]: non-standard residue; d: D form. Phe(4-CN) = N#Cc1ccc(C[C@H](N)C(=O)O)cc1; Phe(3-Me) = Cc1cccc(C[C@H](N)C(=O)O)c1

Data on 48 molecules can be found in patent US20240246941A1, “SUBSTITUTED 4-(3-AMINOPROP-1-YL)AMINOQUINOLINE ANALOGS AS MODULATORS OF MELANOMA-ASSOCIATED ANTIGEN 11 UBIQUITIN LIGASE” (ST. JUDE CHILDREN'S RESEARCH HOSPITAL, INC., priority 2020, published 2024).

The target in one assay is interaction between GST-MAGEA11 MHD and FAM-PCF11_4 peptide (MAGE-A11:PCF11) (Homo sapiens (Human), UniProt P43364). The experiment in a line: TR-FRET dose response competition assay for disruption of MAGE-A11:PCF11 binding. As to conditions: Dose response TR-FRET screening of nine scaffold groups against MAGE-A11:PCF11; read-out: consensus IC50. An excerpt: TR-FRET Assays and High-throughput Screen. Terbium-anti-GST antibody, 1 M Tris pH 7.5 1 M MgCl2 and 1 M DTT were purchased from Invitrogen (Carlsbad, CA), BSA was purchased from Sigma (St. Louis, MO). Dimethyl sulfoxide (DMSO) was purchased from Fisher Scientific (Pittsburgh, PA). Black 384-well low volume plates and 384-well polypropylene compound plates were purchased from Corning Incorporated (Tewksbury, MA). The St. Jude FDA drug and Bioactive library (11,293 chemicals), Drug-like library (10,073 chemicals) and Lead-like library (10,041 chemicals) were custom assembled and purchased from commercial sources including Sigma, Microsource (Gaylordsville, CT), selleckchem (Houston, TX), ChemDiv (San Diego, CA), ChemBridge (San Diego, CA), Enamine (Monmouth Jct., NJ), and Life Chemicals (Niagara-on-the-Lake, ON, Canada). They were arrayed (10 mM in DMSO) in 384-well polypropylene compound plates with columns 1, 2, 13 and 14 empty which were reserved for controls.
Chain of interaction between GST-MAGEA11 MHD and FAM-PCF11_4 peptide (MAGE-A11:PCF11) (P43364 218-429): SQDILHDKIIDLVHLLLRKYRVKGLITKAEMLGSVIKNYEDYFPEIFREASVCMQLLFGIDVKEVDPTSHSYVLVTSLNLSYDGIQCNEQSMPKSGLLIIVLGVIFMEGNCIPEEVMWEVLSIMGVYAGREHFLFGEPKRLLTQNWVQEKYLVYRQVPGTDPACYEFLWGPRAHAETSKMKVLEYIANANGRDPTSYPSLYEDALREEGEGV
The TR-FRET assay buffer with a formula of 50 mM Tris pH 7.5, 20 mM MgCl2, 0.1 mg/ml BSA and 1 mM DTT was freshly prepared before each experiment. All TR-FRET assays were performed in black 384-well plates with 20 μl/well assay volume in the TR-FRET assay buffer at room temperature (approximately 25° C.). All peptides or compounds were solubilized in DMSO. To test the competitive activity of peptides or compounds against the interaction between GST-MAGEA11 MHD and FAM-PCF11_4 peptide, 10 μl/well peptide or compound at specified concentration was dispensed into a black 384-well low volume plate, followed by 5 μl/well FAM-PCF11_4 (800 nM), 5 μl/well Tb-anti-GST (20 nM) and GST-MAGEA11 MHD (20 nM). The assay components in each well was then mixed by shaking the plate on an IKA MTS 2/4 digital microtiter plate shaker (IKA Works; Wilmington, NC, USA) at 900 RPM for 1 minute. The plate was further centrifuged in an Eppendorf 5810 centrifuge with an A-4-62 swing-bucket rotor (Eppendorf AG, Hamburg, Germany) at 201 g (1000 rpm) for 30 seconds. The plate was then incubated for 90 min with a lid to avoid light exposure to the assay components. After incubation, the fluorescent emission signals at 520 nm and 490 nm channels of individual wells were measured with a PHERAstar FS plate reader (BMG Labtech; Durham, NC, USA) by using a 340 nm excitation filter, 100 μs delay time, and 200 μs integration time. The TR-FRET fluorescence emission ratio (TR-FRET signal) for each well was presented as 10 000×520 nm/490 nm, which was used directly for curve fitting, or further converted to % Inhibition based on the respective positive and negative controls. The graphic software GraphPad Prism 4.81 (GraphPad Software; La Jolla, CA, USA) was used to generate curves and derive IC50 values of tested peptides or compounds, if applicable.
TR-FRET inhibitory activity characterization of a panel of PCF11 peptides against the interaction between GST-MAGEA11 MHD and FAM-PCF11_4 was performed as follows. In a 20 μl/well assay volume, dilutions of PCF11_1 to PCF11_8 peptides (concentrations ranged from 3.1 nM to 100 μM for peptides PCF11_4, PCF11_5, PCF11_6 and PCF11_8 in a 1-to-2 dilution pattern for 16 concentration levels, and ranged from 48.9 nM to 100 μM for peptides of PCF11_1, PCF11_2, PCF11_3 and PCF11_7 in a 1-to-2 dilution pattern for 12 concentration levels), 200 nM FAM-PCF11_4, 5 nM Tb-anti-GST and 5 nM GST-MAGEA11 were mixed together and incubated for 90 min before the TR-FRET signal for each well was measured. The final DMSO concentration was 1.1% (v/v). […] The signal of each peptide-treated well (Signalpeptide) was normalized to the positive and negative controls to derive % inhibition of the peptide at a specific concentration with equation 1. Where applicable, the % Inhibition data were fit into a Sigmoidal dose response equation to derive IC50 values.
TR-FRET screen for identifying MAGEA11 small molecule inhibitors was performed as follows.
Turning to `COc1ccc(F)cc1CNCCCNc1ccnc2cc(Cl)ccc12` [SJ000000500-3], the IC50 stood at 69.9 µM.
Regarding `N#Cc1nc(-c2ccc(Cl)cc2)oc1N1CCOCC1` [SJ000010022-1], the IC50 was found to be 69.9 µM.
On the same count and under the same terms, for `N#Cc1nc(-c2ccc(F)cc2)oc1N1CCOCC1` [SJ000011204-1] the value was 69.9 µM; for `CCCN1C(=O)c2ccccc2NC1c1ccc(O)c(OCC)c1` (stereo not drawn) [SJ000019510-1], 69.9 µM.
Turning to `Cc1ccc(C2Nc3ccccc3C(=O)N2Cc2ccccc2)cc1` (stereo not drawn) [SJ000019545-2], the IC50 came to 69.9 µM.
On to `O=C1c2ccccc2NC(c2ccc(Br)cc2)N1Cc1ccccc1` (stereo not drawn) [SJ000019546-2], for which the IC50 was 69.9 µM.
For the molecule `O=C1c2ccccc2NC(c2ccc(Cl)cc2)N1Cc1ccccc1` (stereo not drawn) [SJ000019547-2], the IC50 was found to be 69.9 µM.
Consider `Cc1ccc(S(=O)(=O)N2CCN(C3=C(Cl)C(=O)c4ccccc4C3=O)CC2)cc1` [SJ000021282-1], for which the IC50 was found to be 10.4 µM.
Same read-out and setting: for `O=C(O)c1cccc(NC2=C(Cl)C(=O)c3ccccc3C2=O)c1` [SJ000022282-2] the value was 69.9 µM.
Same read-out and setting: the result for `O=C1C(Cl)=C(Nc2ccc(Br)cc2)C(=O)c2ccccc21` [SJ000024921-1] reads 69.9 µM.
Regarding `CC(=O)Nc1ccc(NC2=C(Cl)C(=O)c3ccccc3C2=O)cc1` [SJ000024922-1], the IC50 is 69.9 µM.
Still for that read-out and setting: for `CCCCOC(=O)c1ccc(NC2=C(Cl)C(=O)c3ccccc3C2=O)cc1` [SJ000024923-1] the value was 69.9 µM.
For the molecule `O=C1C(Cl)=C(Nc2cccc(C(F)(F)F)c2)C(=O)c2ccccc21` [SJ000024924-2], the IC50 was 69.9 µM.
On the same count and under the same terms, for `Cc1cccc(NC2=C(Cl)C(=O)c3ccccc3C2=O)c1` [SJ000024925-1] the value was 69.9 µM; for `COC(=O)c1cccc(NC2=C(Cl)C(=O)c3ccccc3C2=O)c1` [SJ000024926-1], 69.9 µM; for `O=C1C(Cl)=C(NC(=O)C(F)(F)F)C(=O)c2ccccc21` [SJ000024928-1], 9.87 µM.
As to `CC(=O)N(C1=C(Cl)C(=O)c2ccccc2C1=O)c1cccc(I)c1` [SJ000024931-1], the IC50 was 69.9 µM.
As for `Cc1cccc(NC2=C(N)C(=O)c3ccccc3C2=O)c1` [SJ000024934-1], the IC50 was found to be 69.9 µM.
Still for that read-out and setting: for `CC(=O)N(C1=C(Cl)C(=O)c2ccccc2C1=O)c1ccc(C(=O)O)cc1` [SJ000024935-1] the value was 69.9 µM; for `CC(=O)N(C1=C(Cl)C(=O)c2ccccc2C1=O)c1ccc(F)cc1` [SJ000024947-1], 69.9 µM.
Still for that read-out and setting: for `CCCN1C(=O)c2ccccc2NC1c1ccc(F)cc1` (stereo not drawn) [SJ000026516-2] the value was 69.9 µM; for `CCCN1C(=O)c2ccccc2NC1c1ccc(OC)c(OC)c1` (stereo not drawn) [SJ000026517-1], 69.9 µM.
As for `CCCN1C(=O)c2ccccc2NC1c1ccc(OC)cc1` (stereo not drawn) [SJ000026518-2], the IC50 came out at 69.9 µM.
On the same count and under the same terms, the result for `O=C1c2ccccc2NC(c2ccc(F)cc2)N1Cc1ccccc1` (stereo not drawn) [SJ000026596-1] reads 69.9 µM; that for `Cc1ccc(S(=O)(=O)c2nc(-c3cccc(C)c3)oc2N2CCOCC2)cc1` [SJ000027480-1], 11.2 µM; that for `O=S(=O)(c1ccc(Cl)cc1)c1nc(-c2cccc(Br)c2)oc1N1CCOCC1` [SJ000027481-1], 9.2 µM.
The same measure, in the same setting: for `Cc1ccc(S(=O)(=O)c2nc(-c3cccc([N+](=O)[O-])c3)oc2N2CCOCC2)cc1` [SJ000027482-1] the value was 9.54 µM.
As for `C=C1C(Cl)=C(N2CCN(S(=O)(=O)c3ccc(Cl)cc3)CC2)C(=O)c2ccccc21` [SJ000029651-1], the IC50 was determined as 69.9 µM.
Same read-out and setting: the result for `CCOc1ccc(N(C(C)=O)C2=C(Cl)C(=O)c3ccccc3C2=O)cc1` [SJ000030567-2] reads 69.9 µM.
The same measure, in the same setting: the result for `O=C(CNC(=O)c1ccc2[nH]c3ccccc3c2c1)NCCO` [SJ000031064-1] reads 69.9 µM.
Still for that read-out and setting: the result for `O=C(NCCO)c1ccc2[nH]c3ccccc3c2c1` [SJ000031065-1] reads 69.9 µM; that for `CCOC(=O)c1ccc(NC2=C(N)C(=O)c3ccccc3C2=O)cc1` [SJ000032711-1], 69.9 µM; that for `NC1=C(Nc2ccc(I)cc2)C(=O)c2ccccc2C1=O` [SJ000032712-1], 69.9 µM.
For the molecule `NC1=C(Nc2ccc(Br)cc2)C(=O)c2ccccc2C1=O` [SJ000032713-1], the IC50 was determined as 69.9 µM.
On to `CCCCOc1ccc(N(C(C)=O)C2=C(Cl)C(=O)c3ccccc3C2=O)cc1` [SJ000032717-1], for which the IC50 is 8.71 µM.
The same measure, in the same setting: for `CCCCCOc1ccc(NC2=C(N)C(=O)c3ccccc3C2=O)cc1` [SJ000032723-1] the value was 69.9 µM.
In the case of `CCCCCOc1ccc(N(C(C)=O)C2=C(Cl)C(=O)c3ccccc3C2=O)cc1` [SJ000032724-1], the IC50 was found to be 28.3 µM.
For the molecule `O=C1C(Cl)=C(N2CCN(S(=O)(=O)c3ccc(Br)cc3)CC2)C(=O)c2ccccc21` [SJ000033014-1], the IC50 came to 69.9 µM.
On the same count and under the same terms, for `CC(=O)Nc1ccc(S(=O)(=O)N2CCN(C3=C(Cl)C(=O)c4ccccc4C3=O)CC2)cc1` [SJ000036320-1] the value was 69.9 µM.
Still for that read-out and setting: for `COc1cccc(-c2nc(S(=O)(=O)c3ccc(C)cc3)c(N3CCOCC3)o2)c1` [SJ000038123-1] the value was 17.4 µM.
For the molecule `COc1cccc(-c2nc(S(=O)(=O)c3ccc(Cl)cc3)c(N3CCOCC3)o2)c1` [SJ000038124-1], the IC50 worked out at 7.43 µM.
Turning to `O=C1C(Cl)=C(N2CCN(S(=O)(=O)c3ccc(F)cc3)CC2)C(=O)c2ccccc21` [SJ000038882-1], the IC50 is 69.9 µM.
Still for that read-out and setting: for `CCOc1ccc(-c2nc(C#N)c(N3CCOCC3)o2)cc1` [SJ000041896-1] the value was 69.9 µM.
On to `CCOc1ccc(Nc2nc(N)c3ccccc3n2)cc1` [SJ000045621-1], for which the IC50 worked out at 69.9 µM.
On to `Nc1nc(Nc2ccc(O)cc2)nc2ccccc12` [SJ000045622-1], for which the IC50 is 69.9 µM.

Staying with this assay, now noted: PCF11 peptides; read-out: IC50 of PCF11 peptides binding to GST-MAGE-A11 by TR-FRET.
On to `CC[C@H](C)[C@H](NC(=O)[C@H](CCC(N)=O)NC(=O)[C@H](Cc1c[nH]cn1)NC(=O)[C@@H](NC(=O)[C@@H](NC(=O)[C@@H](NC(=O)[C@H](CC(C)C)NC(=O)[C@@H](N)Cc1ccccc1)C(C)C)C(C)C)C(C)C)C(=O)N[C@@H](CCCNC(=N)N)C(=O)N[C@@H](CCC(N)=O)C(=O)N[C@@H](CC(C)C)C(=O)N[C@@H](Cc1cccc(C)c1)C(=O)N[C@@H](CCC(N)=O)C(=O)O` [3-methyl-phenylanaline] (H-FLVVVHQIRQL[Phe(3-Me)]Q-OH; N-terminus and C-terminus assumed), for which the IC50 worked out at 0.0017 µM.
Regarding `CC[C@H](C)[C@H](NC(=O)[C@H](CCC(N)=O)NC(=O)[C@H](Cc1c[nH]cn1)NC(=O)[C@@H](NC(=O)[C@@H](NC(=O)[C@@H](NC(=O)[C@H](CC(C)C)NC(=O)[C@@H](N)Cc1ccccc1)C(C)C)C(C)C)C(C)C)C(=O)N[C@@H](CCCNC(=N)N)C(=O)N[C@@H](CCC(N)=O)C(=O)N[C@@H](CC(C)C)C(=O)N[C@@H](Cc1ccc(C#N)cc1)C(=O)N[C@@H](CCC(N)=O)C(=O)O` [4-cyano-phenylalaninnne] (H-FLVVVHQIRQL[Phe(4-CN)]Q-OH; N-terminus and C-terminus assumed), the IC50 stood at 0.663 µM.

Staying with this assay, now noted: Table 8, representative compounds; read-out: TR-FRET IC50.
With `COc1ccc(F)cc1CNCCCNc1ccnc2cc(Cl)ccc12` [SJ000000500], the IC50 is 69.9 µM.
